# Measured values as given in patent US12139768B2, “Polymerase chain reaction primers and probes for Mycobacterium tuberculosis” (Rutgers, The State University of New Jersey, priority 2014, dated 2024).
# Entries after “also recorded” stand apart in the source; their conditions may differ.
# Experiments:
# Type in all cases: cell-based, Mycobacterium tuberculosis
# M.tb isolates [1] = tested on: M.tb isolates
# M.tb isolates [2] = tested on: M.tb isolates; remark: listed apart in the source
# M.tb isolates [3] = tested on: M.tb isolates; remark: listed apart in the source
Compound,Susceptibility in LJ media (M.tb isolates [1]),Total number of isolates Resistant (LJ) (M.tb isolates [1]),Level of resistance (M.tb isolates [2]),Total number of isolates Resistant (MGIT) (M.tb isolates [3])
"NCC[C@H](O)C(=O)N[C@@H]1C[C@H](N)[C@@H](O[C@H]2O[C@H](CN)[C@@H](O)[C@H](O)[C@H]2O)[C@H](O)[C@H]1O[C@H]1O[C@H](CO)[C@@H](O)[C@H](N)[C@H]1O [AMK, Amikacin]",susceptible,90,high level resistance; also recorded: no resistance to AMK,–
"NC[C@H]1O[C@H](O[C@H]2[C@H](O)[C@@H](O[C@H]3O[C@H](CO)[C@@H](O)[C@H](N)[C@H]3O)[C@H](N)C[C@@H]2N)[C@H](O)[C@@H](O)[C@@H]1O [KAN, Kanamycin]",–,106,–,113
